From ChEMBL document CHEMBL5233245, “Monocarboxylate transporter 1 and 4 inhibitors as potential therapeutics for treating solid tumours: A review with structure-activity relationship insights” (Eur J Med Chem, 2020)
Values belong to the molecule of their own block, whether it stands above or below them.

Experiments:
[1] = biological target: T1, Monocarboxylate transporter 4 (Homo sapiens, UniProt O15427); assay: Binding affinity to human MCT4 expressed in Xenopus laevis oocytes assessed as inhibition constant in presence of [14C]lactate by fluorescence assay
T1 sequence (O15427 whole entry): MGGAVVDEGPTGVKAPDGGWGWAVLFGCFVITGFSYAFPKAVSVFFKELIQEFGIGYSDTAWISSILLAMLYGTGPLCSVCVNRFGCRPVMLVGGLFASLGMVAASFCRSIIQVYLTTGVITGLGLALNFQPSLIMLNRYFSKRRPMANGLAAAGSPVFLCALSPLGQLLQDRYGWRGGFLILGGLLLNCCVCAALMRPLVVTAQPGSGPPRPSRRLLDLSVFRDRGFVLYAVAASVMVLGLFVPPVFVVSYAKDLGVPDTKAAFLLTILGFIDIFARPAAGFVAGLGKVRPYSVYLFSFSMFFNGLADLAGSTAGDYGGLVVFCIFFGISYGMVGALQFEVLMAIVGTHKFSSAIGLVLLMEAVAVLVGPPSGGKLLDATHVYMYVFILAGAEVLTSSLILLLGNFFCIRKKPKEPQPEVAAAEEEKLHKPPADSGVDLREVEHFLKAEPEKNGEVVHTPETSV

[2] = biological target: T2, Monocarboxylate transporter 1 (Homo sapiens, UniProt P53985); assay: Binding affinity to MCT1 (unknown origin) assessed as inhibition constant
T2 sequence (P53985 whole entry): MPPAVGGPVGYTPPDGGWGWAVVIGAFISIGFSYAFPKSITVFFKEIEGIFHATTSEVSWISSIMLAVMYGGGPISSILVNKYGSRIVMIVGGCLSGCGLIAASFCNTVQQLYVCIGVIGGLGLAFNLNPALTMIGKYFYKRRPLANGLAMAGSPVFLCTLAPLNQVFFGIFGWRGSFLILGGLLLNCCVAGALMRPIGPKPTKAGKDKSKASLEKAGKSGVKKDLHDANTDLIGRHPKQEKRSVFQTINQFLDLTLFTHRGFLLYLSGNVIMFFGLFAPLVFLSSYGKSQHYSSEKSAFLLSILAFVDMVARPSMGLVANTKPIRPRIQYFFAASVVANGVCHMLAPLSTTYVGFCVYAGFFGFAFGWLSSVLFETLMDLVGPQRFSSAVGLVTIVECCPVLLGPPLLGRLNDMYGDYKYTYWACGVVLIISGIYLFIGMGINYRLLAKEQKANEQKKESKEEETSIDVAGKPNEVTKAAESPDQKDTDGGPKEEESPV

[3] = biological target: T2, Monocarboxylate transporter 1; assay: Inhibition of MCT1 (unknown origin) assessed as reduction in [14C]lactate uptake incubated for 20 mins by liquid scintillation counting analysis
[4] = biological target: T3, Monocarboxylate transporter 1 (Rattus norvegicus, UniProt P53987); assay: Inhibition of MCT1 in rat Brain-like endothelial cells incubated for 15 mins in presence of [14C]lactic acid by scintillation counter assay; assay type: cell-based
T3 sequence (P53987 whole entry): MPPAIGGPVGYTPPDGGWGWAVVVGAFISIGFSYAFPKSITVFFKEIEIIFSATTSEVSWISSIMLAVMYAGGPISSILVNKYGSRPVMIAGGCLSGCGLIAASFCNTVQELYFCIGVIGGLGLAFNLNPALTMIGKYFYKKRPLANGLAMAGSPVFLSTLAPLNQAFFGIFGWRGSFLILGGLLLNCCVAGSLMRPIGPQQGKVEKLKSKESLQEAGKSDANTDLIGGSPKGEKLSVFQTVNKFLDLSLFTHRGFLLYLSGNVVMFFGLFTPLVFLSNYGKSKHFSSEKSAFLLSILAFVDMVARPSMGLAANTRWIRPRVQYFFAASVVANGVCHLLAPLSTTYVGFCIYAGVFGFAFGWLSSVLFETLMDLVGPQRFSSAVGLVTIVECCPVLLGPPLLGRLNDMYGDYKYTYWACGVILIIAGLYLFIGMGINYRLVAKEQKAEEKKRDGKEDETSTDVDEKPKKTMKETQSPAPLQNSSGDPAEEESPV

Mus musculus = assay: Antitumor activity against human WiDr cells xenografted in CD-1 mouse assessed as reduction in tumor growth at 25 mg/kg,ip qd measured after 16 days; assay type: functional; set-up: scale not given: the % may be the effect or the level left; conditions: time 16 day
[5] = biological target: T3, Monocarboxylate transporter 1; assay: Inhibition of MCT1 in rat Brain-like endothelial cells incubated for 15 mins in presence of [14C]lactate by […]; assay type: cell-based
Raji [6] = assay: Cytotoxicity against human Raji cells assessed as inhibition of cell growth by MTT assay; assay type: functional, cell-based
MDA-MB-231 = assay: Cytotoxicity against human MDA-MB-231 cells assessed as inhibition of cell growth; assay type: functional, cell-based
[7] = biological target: T1, Monocarboxylate transporter 4; assay: Inhibition of MCT4 (unknown origin)
[8] = biological target: T2, Monocarboxylate transporter 1; assay: Inhibition of MCT1 (unknown origin)
Raji [9] = assay: Antiproliferative activity against human Raji cells assessed as inhibition of cell growth by MTT assay; assay type: functional, cell-based
[10] = biological target: T4, Monocarboxylate transporter 2 (Rattus norvegicus, UniProt Q63344); assay: Binding affinity to MCT2 in rat Erythrocyte assessed as inhibition constant; assay type: cell-based
T4 sequence (Q63344 whole entry): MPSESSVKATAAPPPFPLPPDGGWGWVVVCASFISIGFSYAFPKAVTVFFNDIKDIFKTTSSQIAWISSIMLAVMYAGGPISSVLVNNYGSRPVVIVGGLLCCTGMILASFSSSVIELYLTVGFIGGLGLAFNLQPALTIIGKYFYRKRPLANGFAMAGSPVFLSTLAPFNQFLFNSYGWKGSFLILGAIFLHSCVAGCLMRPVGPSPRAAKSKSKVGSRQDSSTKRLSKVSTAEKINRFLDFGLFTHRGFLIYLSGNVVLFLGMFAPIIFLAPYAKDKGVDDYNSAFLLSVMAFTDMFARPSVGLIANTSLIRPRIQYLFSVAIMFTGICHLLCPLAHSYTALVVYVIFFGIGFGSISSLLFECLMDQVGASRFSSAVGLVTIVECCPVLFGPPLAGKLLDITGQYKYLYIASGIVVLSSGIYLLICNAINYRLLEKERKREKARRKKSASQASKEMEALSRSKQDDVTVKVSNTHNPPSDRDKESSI

[11] = biological target: T3, Monocarboxylate transporter 1; assay: Binding affinity to MCT1 in rat Erythrocyte assessed as inhibition constant; assay type: cell-based

SMILES: CC(C)(OCc1nn(Cc2ccccc2)c2ccccc12)C(=O)O [BINDARIT]
Ki [1]: 30.2 µM

SMILES: Cc1[nH]nc(C(F)(F)F)c1Cc1sc2c(c1C(=O)N1C[C@](C)(O)CO1)c(=O)n(C)c(=O)n2C(C)C [AZD3965]
Ki [2]: 2 nM

SMILES: CCCCCN(CCCCC)c1ccc(/C=C(\C#N)C(=O)O)c(OC)c1
IC50 [3]: 34 nM

SMILES: CC(C)(C)[Si](Oc1ccc(/C=C(\C#N)C(=O)O)cc1)(c1ccccc1)c1ccccc1
Activity (Mus musculus): 28%

SMILES: CC(C)c1cc(=O)c2c(OCc3ccccc3CO)cc(OCc3ccc4ccccc4c3)cc2o1
EC50 (Raji [6]): > 100000 nM

SMILES: COC(=O)[C@@](O)(CO)COC(=O)c1nn(-c2ccc(N(Cc3ccc(F)cc3)Cc3ccc(F)cc3)cc2)c2ccccc12
IC50 (MDA-MB-231): 3020 nM

SMILES: N#C/C(=C\c1ccc(O)cc1)C(=O)O [alpha-CYANO-4-HYDROXYCINNAMIC ACID]
IC50 [7]: > 150 µM | IC50 [8]: 100 µM

SMILES: CC(C)Cn1c(=O)n(C)c(=O)c2nc(CCCCCO)c(COc3ccc4ccccc4c3)nc21
EC50 (Raji [9]): < 50 nM

SMILES: CC(C)(C)[Si](OCCOc1ccc(/C=C(\C#N)C(=O)O)cc1)(c1ccccc1)c1ccccc1
Activity (Mus musculus): 28%

SMILES: Cc1n[nH]c(C)c1Cc1sc2c(c1C(=O)N1C[C@@H](O)CO1)c(=O)n(C)c(=O)n2CC(C)C
Ki [10]: < 10 nM | Ki [11]: 2 nM

SMILES: COc1cc(N(Cc2ccccc2)Cc2ccccc2)ccc1/C=C(\C#N)C(=O)O
IC50 [3]: 37 nM

SMILES: CC(C)c1cc(=O)c2c(OCCCO)cc(OCc3ccc4ccccc4c3)cc2o1
EC50 (Raji [6]): 100 nM

SMILES: COC(=O)[C@@](O)(CO)COC(=O)c1nn(-c2ccc(N(Cc3ccccc3)Cc3ccccc3)cc2)c2ccccc12
IC50 (MDA-MB-231): 2330 nM

SMILES: Cc1cc(=O)c2c(OCCCO)cc(OCc3ccc4ccccc4c3)cc2o1
EC50 (Raji [6]): 1000 nM

Results, then the molecule that gave them:

IC50 [4]: > 1000 nM
SMILES: N#C/C(=C\c1cn(-c2ccccn2)c2ccccc12)C(=O)O

IC50 [4]: 12.8 nM
SMILES: N#C/C(=C\c1cn(-c2ccccc2)c2ccccc12)C(=O)O

IC50 [3]: 11 nM
SMILES: COc1cc(N(CC(C)C)CC(C)C)ccc1/C=C(\C#N)C(=O)O

IC50 [5]: > 5 µM
SMILES: N#C/C(=C\c1ccc(OCCBr)cc1)C(=O)O

IC50 [5]: > 5 µM
SMILES: N#C/C(=C\c1ccc(OCCO)cc1)C(=O)O

IC50 [3]: 48 nM
SMILES: COc1cc(N2CCCC2)ccc1/C=C(\C#N)C(=O)O

IC50 [4]: 65.9 nM
SMILES: N#C/C(=C\c1cn(Cc2ccccc2)c2ccccc12)C(=O)O

IC50 [3]: 25 nM
SMILES: COc1cc(N2CCCCC2)ccc1/C=C(\C#N)C(=O)O
